A word on the DC50: it is the concentration at which degradation of the target reaches its halfway point. Low readings indicate a more potent degrader, high ones a less potent degrader. Usually Dmax stands for the greatest extent of degradation seen. Read a high Dmax as a fuller loss of target.

Data on twelve compounds can be found in patent publication US11957759B1, “Rapidly accelerated fibrosarcoma (RAF) degrading compounds and associated methods of use” (Arvinas Operations, Inc., priority 2022, dated 2024).

The target of assay [1] is T1, B-RAF V600E (Homo sapiens, UniProt P15056, V600E).
T1 construct: expressed in transfected cells; host or cells: T-Rex 293 cells (Invitrogen #R71007)
The assay is described as follows: Target protein degradation, assay C: T-Rex 293 cells, HA-BRAF_V600E, 384 well format. The class given is cell-based. The conditions noted are these: T-Rex 293 HA-BRAF_V600E cells, 24 hours, Examples 83-269; for DC50: Assay C; for Dmax: T-REx-293, Assay C. Summed up: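 T-Rex 293 cells stably expressing doxycycline-induced (1 ng/mL) HA-BRAF V600E were treated 24 h at 37 °C with compound (300 nM–5 pM, 11 points, 0.5% DMSO). HA immunofluorescence was quantified by high-content imaging to give DC50 and Dmax (% of control); nuclei counts versus DMSO gauged toxicity.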

Assay [2] deals with T2, B-RAF G466V (Homo sapiens, UniProt P15056, G466V).
T2 construct: expressed in transfected cells; host or cells: T-Rex 293 cells (Invitrogen #R71007)
The assay is described as follows: Target protein degradation, assay D: T-Rex 293 cells, HA-BRAF_G466V, 384 well format. The class given is cell-based. The conditions noted are these: T-Rex 293 HA-BRAF_G466V cells, 24 hours, Examples 83-269; for DC50: Assay D; for Dmax: T-REx-293, Assay D. Summed up: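 T-Rex 293 cells stably expressing doxycycline-induced (1 ng/mL) HA-BRAF G466V treated 24 h at 37 °C with PROTACs, 11-point 1:3 dilution, 300 nM to 5 pM final, 0.5% DMSO. Fixed cells immunostained for HA and imaged by high-content microscopy; DC50 and Dmax (% of control) derived, toxicity from nuclei counts versus DMSO.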

T1 sequence (P15056 whole entry V600E): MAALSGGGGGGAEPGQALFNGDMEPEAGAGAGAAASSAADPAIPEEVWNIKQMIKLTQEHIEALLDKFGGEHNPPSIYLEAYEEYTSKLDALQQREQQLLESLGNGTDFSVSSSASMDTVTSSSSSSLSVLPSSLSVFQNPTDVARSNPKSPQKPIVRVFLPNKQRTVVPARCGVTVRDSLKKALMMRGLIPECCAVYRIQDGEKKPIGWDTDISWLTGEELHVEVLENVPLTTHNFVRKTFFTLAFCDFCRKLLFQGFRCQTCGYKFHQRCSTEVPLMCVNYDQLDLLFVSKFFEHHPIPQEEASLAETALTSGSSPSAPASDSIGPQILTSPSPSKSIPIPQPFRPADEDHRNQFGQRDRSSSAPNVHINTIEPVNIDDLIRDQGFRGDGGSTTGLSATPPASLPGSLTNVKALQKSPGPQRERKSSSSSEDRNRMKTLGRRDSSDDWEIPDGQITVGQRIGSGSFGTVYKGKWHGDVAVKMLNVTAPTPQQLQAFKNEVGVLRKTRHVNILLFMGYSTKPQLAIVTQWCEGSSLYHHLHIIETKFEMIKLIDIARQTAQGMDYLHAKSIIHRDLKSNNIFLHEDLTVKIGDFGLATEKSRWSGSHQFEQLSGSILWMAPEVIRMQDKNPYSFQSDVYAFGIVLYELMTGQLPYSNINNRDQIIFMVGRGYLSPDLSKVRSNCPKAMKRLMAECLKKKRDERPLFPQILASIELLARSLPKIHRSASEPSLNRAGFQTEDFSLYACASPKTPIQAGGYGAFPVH
T2 sequence (P15056 whole entry G466V): as the sequence (P15056 whole entry V600E) above, with G466V, E600V counted along it

As for `CN(c1ccc(-n2cnc3ccc(Oc4c(F)ccc(NS(=O)(=O)N5CC[C@@H](F)C5)c4C#N)cc3c2=O)cc1)[C@H]1CC[C@@H](N2CCN(c3ccc4c(c3)CN([C@H]3CCC(=O)NC3=O)C4=O)CC2)CC1` [Example 224, (3R)-N-(2-cyano-4-fluoro-3-{[3-(4-{methyl[(1r,4r)-4-(4-{2-[(3S)-2,6-dioxopiperidin-3-yl]-1-oxo-2,3-dihydro-1H-isoindol-5-yl}piperazin-1-yl)cyclohexyl]amino}phenyl)-4-oxo-3,4-dihydroquinazolin-6-yl]oxy}phenyl)-3-fluoropyrrolidine-1-sulfonamide], in assay [1], the DC50 lay within 50 to 500 nM and the Dmax is ≤ 35%. In assay [2], the DC50 fell in the range of 10 to 30 nM and the Dmax was in the range of 35 to 70%.
For `CN(c1ccc(-n2cnc3ccc(Oc4c(F)ccc(NS(=O)(=O)N5CC[C@@H](F)C5)c4C#N)cc3c2=O)cc1)C1CCC(N2CCN(c3ccc4c(c3)CN([C@H]3CCC(=O)NC3=O)C4=O)CC2)CC1` (stereo partly drawn) [Example 225, (3R)-N-(2-cyano-4-fluoro-3-{[3-(4-{methyl[(1s,4s)-4-(4-{2-[(3S)-2,6-dioxopiperidin-3-yl]-1-oxo-2,3-dihydro-1H-isoindol-5-yl}piperazin-1-yl)cyclohexyl]amino}phenyl)-4-oxo-3,4-dihydroquinazolin-6-yl]oxy}phenyl)-3-fluoropyrrolidine-1-sulfonamide], the values for the DC50 in assay [1] and in assay [2] were > 500 nM and 10 to 30 nM, respectively. Besides, the Dmax in assay [2] was in the range of 35 to 70%.
Turning to `N#Cc1c(NS(=O)(=O)N2CC[C@@H](F)C2)ccc(F)c1Oc1ccc2ncn(-c3ccc(C4CCC5(CC4)CCN(CC4CCN(c6ccc7c(c6)CN([C@H]6CCC(=O)NC6=O)C7=O)CC4)CC5)cc3)c(=O)c2c1` [Example 226, (3R)-N-(2-cyano-3-{[3-(4-{3-[(1-{2-[(3S)-2,6-dioxopiperidin-3-yl]-1-oxo-2,3-dihydro-1H-isoindol-5-yl}piperidin-4-yl)methyl]-3-azaspiro[5.5]undecan-9-yl}phenyl)-4-oxo-3,4-dihydroquinazolin-6-yl]oxy}-4-fluorophenyl)-3-fluoropyrrolidine-1-sulfonamide], the figures for the DC50 in assay [1] and in assay [2] were 50 to 500 nM and 1 to 10 nM, respectively. The Dmax in assay [1] was ≤ 35%; in assay [2], 35 to 70%.
Taken in the same sequence, the figures for `CCc1c(NS(=O)(=O)N2CC[C@@H](F)C2)ccc(F)c1Oc1ccc2ncn(-c3ccc(N4CCN(CC5CCN(c6ccc7c(c6)CN(C6CCC(=O)NC6=O)C7=O)CC5)CC4)cc3)c(=O)c2c1` (stereo partly drawn) [Example 227, (3R)-N-{3-[(3-{4-[4-({1-[2-(2,6-dioxopiperidin-3-yl)-1-oxo-2,3-dihydro-1H-isoindol-5-yl]piperidin-4-yl}methyl)piperazin-1-yl]phenyl}-4-oxo-3,4-dihydroquinazolin-6-yl)oxy]-2-ethyl-4-fluorophenyl}-3-fluoropyrrolidine-1-sulfonamide] were 50 to 500 nM, 10 to 30 nM, ≤ 35% and ≤ 35%.
Taken in the same sequence, the figures for `N#Cc1c(NS(=O)(=O)N2CC[C@@H](F)C2)ccc(F)c1Oc1ccc2ncn(-c3ccc(N4CCC(CN5CCC6(CC5)CCN(c5ccc7c(c5)CN([C@H]5CCC(=O)NC5=O)C7=O)CC6)CC4)cc3)c(=O)c2c1` [Example 228, (3R)-N-(2-cyano-3-{[3-(4-{4-[(9-{2-[(3S)-2,6-dioxopiperidin-3-yl]-1-oxo-2,3-dihydro-1H-isoindol-5-yl}-3,9-diazaspiro[5.5]undecan-3-yl)methyl]piperidin-1-yl}phenyl)-4-oxo-3,4-dihydroquinazolin-6-yl]oxy}-4-fluorophenyl)-3-fluoropyrrolidine-1-sulfonamide] were 50 to 500 nM, 1 to 10 nM, 35 to 70% and 35 to 70%.
The corresponding values for `CN(c1ccc2c(c1)CN([C@@H]1CCC(=O)NC1=O)C2=O)[C@H]1CC[C@H](N2CCN(c3ccc(-n4cnc5ccc(Oc6c(F)ccc(NS(=O)(=O)N7CC[C@@H](F)C7)c6C#N)cc5c4=O)cc3)CC2)CC1` [Example 229, (3R)-N-(2-cyano-4-fluoro-3-{[4-oxo-3-(4-{4-[(1r,4r)-4-({2-[(3R)-2,6-dioxopiperidin-3-yl]-1-oxo-2,3-dihydro-1H-isoindol-5-yl}(methyl)amino)cyclohexyl]piperazin-1-yl}phenyl)-3,4-dihydroquinazolin-6-yl]oxy}phenyl)-3-fluoropyrrolidine-1-sulfonamide] are 50 to 500 nM, 1 to 10 nM, 35 to 70% and 35 to 70%.
In assay [1], `CN(c1ccc2c(c1)CN([C@H]1CCC(=O)NC1=O)C2=O)[C@H]1CC[C@@H](N2CCN(c3ccc(-n4cnc5ccc(Oc6c(F)ccc(NS(=O)(=O)N7CC[C@@H](F)C7)c6C#N)cc5c4=O)cc3)CC2)CC1` [Example 230, (3R)-N-(2-cyano-4-fluoro-3-{[4-oxo-3-(4-(4-[(1r,4r)-4-({2-[(3S)-2,6-dioxopiperidin-3-yl]-1-oxo-2,3-dihydro-1H-isoindol-5-yl}(methyl)amino)cyclohexyl]piperazin-1-yl}phenyl)-3,4-dihydroquinazolin-6-yl]oxy}phenyl)-3-fluoropyrrolidine-1-sulfonamide] had a DC50 of 50 to 500 nM and a Dmax of 35 to 70%. In assay [2], this compound registered a DC50 of 1 to 10 nM and a Dmax of 35 to 70%.
`CN(c1ccc2c(c1)CN([C@H]1CCC(=O)NC1=O)C2=O)[C@H]1CC[C@H](N2CCN(c3ccc(-n4cnc5ccc(Oc6c(F)ccc(NS(=O)(=O)N7CC[C@@H](F)C7)c6C#N)cc5c4=O)cc3)CC2)CC1` [Example 231, (3R)-N-(2-cyano-4-fluoro-3-{[4-oxo-3-(4-(4-[(1s,4s)-4-({2-[(3S)-2,6-dioxopiperidin-3-yl]-1-oxo-2,3-dihydro-1H-isoindol-5-yl}(methyl)amino)cyclohexyl]piperazin-1-yl}phenyl)-3,4-dihydroquinazolin-6-yl]oxy}phenyl)-3-fluoropyrrolidine-1-sulfonamide]: in assay [1], the DC50 is 50 to 500 nM and the Dmax was 35 to 70%. Moreover, in assay [2], the DC50 was in the range of 1 to 10 nM and the Dmax was 35 to 70%.
In assay [1], `C[C@H]1CC(CN2CCC(c3ccc4c(c3)CN(C3CCC(=O)NC3=O)C4=O)CC2)CCN1c1ccc(-n2cnc3ccc(Oc4c(F)ccc(NS(=O)(=O)N5CC[C@@H](F)C5)c4C#N)cc3c2=O)cc1` (stereo partly drawn) [Example 232, (3R)-N-{2-cyano-3-[(3-{4-[(2S)-4-({4-[2-(2,6-dioxopiperidin-3-yl)-1-oxo-2,3-dihydro-1H-isoindol-5-yl]piperidin-1-yl}methyl)-2-methylpiperidin-1-yl]phenyl}-4-oxo-3,4-dihydroquinazolin-6-yl)oxy]-4-fluorophenyl}-3-fluoropyrrolidine-1-sulfonamide] gave a DC50 of 50 to 500 nM and a Dmax of 35 to 70%. In assay [2], this compound displayed a DC50 of 1 to 10 nM and a Dmax of 35 to 70%.
On to `N#Cc1c(NS(=O)(=O)N2CC[C@@H](F)C2)ccc(F)c1Oc1ccc2ncn(-c3ccc(N4CCC(CN5CC6(CCN(c7ccc8c(c7)CN([C@H]7CCC(=O)NC7=O)C8=O)CC6)C5)C4)cc3)c(=O)c2c1` (stereo partly drawn) [Example 233, (3R)-N-(2-cyano-3-{[3-(4-{3-[(7-{2-[(3S)-2,6-dioxopiperidin-3-yl]-1-oxo-2,3-dihydro-1H-isoindol-5-yl}-2,7-diazaspiro[3.5]nonan-2-yl)methyl]pyrrolidin-1-yl}phenyl)-4-oxo-3,4-dihydroquinazolin-6-yl]oxy}-4-fluorophenyl)-3-fluoropyrrolidine-1-sulfonamide], for which, in assay [1], the 50% degradation concentration (DC50) is 50 to 500 nM and the Dmax fell in the range of 35 to 70%. In assay [2], this compound returned a DC50 of 10 to 30 nM and a Dmax of 35 to 70%.
As for `Cc1cc(N2CC(CN3CCN(c4ccc(-n5cnc6ccc(Oc7c(F)ccc(NS(=O)(=O)N8CC[C@@H](F)C8)c7C#N)cc6c5=O)cc4)CC3)C2)cc2c1C(=O)N([C@H]1CCC(=O)NC1=O)C2` [Example 234, (3R)-N-(2-cyano-3-{[3-(4-{4-[(1-{2-[(3S)-2,6-dioxopiperidin-3-yl]-7-methyl-1-oxo-2,3-dihydro-1H-isoindol-5-yl}azetidin-3-yl)methyl]piperazin-1-yl}phenyl)-4-oxo-3,4-dihydroquinazolin-6-yl]oxy}-4-fluorophenyl)-3-fluoropyrrolidine-1-sulfonamide], the DC50 fell in the range of 50 to 500 nM in assay [1] and 1 to 10 nM in assay [2]. Moreover, the Dmax in assay [1] and in assay [2] was 35 to 70% throughout.
In assay [1], `Cc1cc(N2CC(CN3CCN(c4ccc(-n5cnc6ccc(Oc7c(F)ccc(NS(=O)(=O)N8CC[C@@H](F)C8)c7C#N)cc6c5=O)cc4)CC3)C2)cc2c1C(=O)N([C@@H]1CCC(=O)NC1=O)C2` [Example 235, (3R)-N-(2-cyano-3-{[3-(4-{4-[(1-{2-[(3R)-2,6-dioxopiperidin-3-yl]-7-methyl-1-oxo-2,3-dihydro-1H-isoindol-5-yl}azetidin-3-yl)methyl]piperazin-1-yl}phenyl)-4-oxo-3,4-dihydroquinazolin-6-yl]oxy}-4-fluorophenyl)-3-fluoropyrrolidine-1-sulfonamide] registered a DC50 of 50 to 500 nM and a Dmax of 35 to 70%. In assay [2], this compound registered a DC50 of 1 to 10 nM and a Dmax of 35 to 70%.
